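Five concentrations, 48 hours, 96-well plates. The concentration for full growth arrest is given as TGI.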
Columns and labels:
Assay in all cases: NCI tumour cell line growth inhibition, 48 h
ACHN renal = system: ACHN renal
OVCAR-4 ovarian = system: OVCAR-4 ovarian
HOP-92 NSCLC = system: HOP-92 NSCLC
KM12 colon = system: KM12 colon
NCI-H460 lung = system: NCI-H460 lung
HCT-15 colon = system: HCT-15 colon
OVCAR-3 ovarian = system: OVCAR-3 ovarian
OVCAR-5 ovarian = system: OVCAR-5 ovarian
NCI-H23 lung = system: NCI-H23 lung
SF-295 CNS = system: SF-295 CNS
SNB-19 CNS = system: SNB-19 CNS
DLD-1 colon = system: DLD-1 colon
UACC-62 melanoma = system: UACC-62 melanoma
NCI-H226 lung = system: NCI-H226 lung
K-562 leukemia = system: K-562 leukemia
MALME-3M melanoma = system: MALME-3M melanoma
HOP-62 NSCLC = system: HOP-62 NSCLC
COLO 205 colon = system: COLO 205 colon
CAKI-1 renal = system: CAKI-1 renal
SK-MEL-28 melanoma = system: SK-MEL-28 melanoma
M14 melanoma = system: M14 melanoma
SR leukemia = system: SR leukemia
SK-MEL-2 melanoma = system: SK-MEL-2 melanoma
HOP-18 NSCLC = system: HOP-18 NSCLC
HCC-2998 colon = system: HCC-2998 colon
HL-60(TB) leukemia = system: HL-60(TB) leukemia
SF-268 CNS = system: SF-268 CNS
LOX IMVI melanoma = system: LOX IMVI melanoma
LXFL 529 NSCLC = system: LXFL 529 NSCLC
UO-31 renal = system: UO-31 renal
786-0 renal = system: 786-0 renal
DMS 114 small cell lung = system: DMS 114 small cell lung
U251 CNS = system: U251 CNS
SF-539 CNS = system: SF-539 CNS
XF 498 CNS = system: XF 498 CNS
OVCAR-8 ovarian = system: OVCAR-8 ovarian
HCT-116 colon = system: HCT-116 colon
EKVX NSCLC = system: EKVX NSCLC
RXF-631 renal = system: RXF-631 renal
MOLT-4 leukemia = system: MOLT-4 leukemia
HT29 colon = system: HT29 colon
UACC-257 melanoma = system: UACC-257 melanoma
A498 renal = system: A498 renal
IGROV1 ovarian = system: IGROV1 ovarian
KM20L2 colon = system: KM20L2 colon
SK-MEL-5 melanoma = system: SK-MEL-5 melanoma
DMS 273 small cell lung = system: DMS 273 small cell lung
SW-620 colon = system: SW-620 colon
SN12C renal = system: SN12C renal
A549 NSCLC = system: A549 NSCLC
SNB-75 CNS = system: SNB-75 CNS
TK-10 renal = system: TK-10 renal
NCI-H522 lung = system: NCI-H522 lung
CCRF-CEM leukemia = system: CCRF-CEM leukemia
SK-OV-3 ovarian = system: SK-OV-3 ovarian
SNB-78 CNS = system: SNB-78 CNS
RXF 393 renal = system: RXF 393 renal
M19-MEL melanoma = system: M19-MEL melanoma
MCF7 breast = system: MCF7 breast
RPMI-8226 leukemia = system: RPMI-8226 leukemia
NCI/ADR-RES ovarian = system: NCI/ADR-RES ovarian
P388/ADR leukemia = system: P388/ADR leukemia
SN12K1 renal = system: SN12K1 renal
P388 leukemia = system: P388 leukemia
HS 578T breast = system: HS 578T breast
T-47D breast = system: T-47D breast
MDA-MB-435 = system: MDA-MB-435
MDA-MB-231 breast = system: MDA-MB-231 breast
DU-145 prostate = system: DU-145 prostate
BT-549 breast = system: BT-549 breast
PC-3 prostate = system: PC-3 prostate
MDA-N = system: MDA-N

COC(=O)C(C)(C)N=CN(C)C
TGI (ACHN renal): > 100 µM | TGI (OVCAR-4 ovarian): > 100 µM | TGI (HOP-92 NSCLC): > 100 µM | TGI (KM12 colon): > 100 µM | TGI (NCI-H460 lung): > 100 µM | TGI (HCT-15 colon): > 100 µM | TGI (OVCAR-3 ovarian): > 100 µM | TGI (OVCAR-5 ovarian): > 100 µM | TGI (NCI-H23 lung): > 100 µM | TGI (SF-295 CNS): > 100 µM | TGI (SNB-19 CNS): > 100 µM | TGI (DLD-1 colon): > 100 µM | TGI (UACC-62 melanoma): > 100 µM | TGI (NCI-H226 lung): > 100 µM | TGI (K-562 leukemia): > 100 µM | TGI (MALME-3M melanoma): > 100 µM | TGI (HOP-62 NSCLC): > 100 µM | TGI (COLO 205 colon): > 100 µM | TGI (CAKI-1 renal): > 100 µM | TGI (SK-MEL-28 melanoma): > 100 µM | TGI (M14 melanoma): > 100 µM | TGI (SR leukemia): > 100 µM | TGI (SK-MEL-2 melanoma): > 100 µM | TGI (HOP-18 NSCLC): > 100 µM | TGI (HCC-2998 colon): > 100 µM | TGI (HL-60(TB) leukemia): > 100 µM | TGI (SF-268 CNS): > 100 µM | TGI (LOX IMVI melanoma): > 100 µM | TGI (LXFL 529 NSCLC): > 100 µM | TGI (UO-31 renal): > 100 µM | TGI (786-0 renal): > 100 µM | TGI (DMS 114 small cell lung): > 100 µM | TGI (U251 CNS): > 100 µM | TGI (SF-539 CNS): > 100 µM | TGI (XF 498 CNS): > 100 µM | TGI (OVCAR-8 ovarian): > 100 µM | TGI (HCT-116 colon): > 100 µM | TGI (EKVX NSCLC): > 100 µM | TGI (RXF-631 renal): > 100 µM | TGI (MOLT-4 leukemia): > 100 µM | TGI (HT29 colon): > 100 µM | TGI (UACC-257 melanoma): > 100 µM | TGI (A498 renal): > 100 µM | TGI (IGROV1 ovarian): > 100 µM | TGI (KM20L2 colon): > 100 µM | TGI (SK-MEL-5 melanoma): > 100 µM | TGI (DMS 273 small cell lung): > 100 µM | TGI (SW-620 colon): > 100 µM | TGI (SN12C renal): > 100 µM | TGI (A549 NSCLC): > 100 µM | TGI (SNB-75 CNS): > 100 µM | TGI (TK-10 renal): > 100 µM | TGI (NCI-H522 lung): > 100 µM | TGI (CCRF-CEM leukemia): > 100 µM | TGI (SK-OV-3 ovarian): > 100 µM | TGI (SNB-78 CNS): > 100 µM | TGI (RXF 393 renal): > 100 µM | TGI (M19-MEL melanoma): > 100 µM

COc1cc(/C=C(/C#N)C(N)=O)ccc1O
TGI (OVCAR-4 ovarian): > 100 µM | TGI (HOP-92 NSCLC): > 100 µM | TGI (KM12 colon): > 100 µM | TGI (NCI-H460 lung): > 100 µM | TGI (HCT-15 colon): > 100 µM | TGI (MCF7 breast): > 100 µM | TGI (OVCAR-3 ovarian): > 100 µM | TGI (OVCAR-5 ovarian): > 100 µM | TGI (NCI-H23 lung): > 100 µM | TGI (SF-295 CNS): > 100 µM | TGI (SNB-19 CNS): > 100 µM | TGI (DLD-1 colon): > 100 µM | TGI (UACC-62 melanoma): > 100 µM | TGI (NCI-H226 lung): > 100 µM | TGI (K-562 leukemia): > 100 µM | TGI (MALME-3M melanoma): > 100 µM | TGI (HOP-62 NSCLC): > 100 µM | TGI (COLO 205 colon): > 100 µM | TGI (CAKI-1 renal): > 100 µM | TGI (SK-MEL-28 melanoma): > 100 µM | TGI (SK-MEL-2 melanoma): > 100 µM | TGI (HOP-18 NSCLC): > 100 µM | TGI (HCC-2998 colon): > 82.1 µM | TGI (HL-60(TB) leukemia): > 100 µM | TGI (SF-268 CNS): > 100 µM | TGI (LOX IMVI melanoma): > 100 µM | TGI (UO-31 renal): > 100 µM | TGI (DMS 114 small cell lung): > 100 µM | TGI (U251 CNS): > 100 µM | TGI (SF-539 CNS): > 100 µM | TGI (XF 498 CNS): > 100 µM | TGI (OVCAR-8 ovarian): > 100 µM | TGI (HCT-116 colon): > 100 µM | TGI (EKVX NSCLC): > 100 µM | TGI (MOLT-4 leukemia): > 100 µM | TGI (HT29 colon): > 100 µM | TGI (UACC-257 melanoma): > 100 µM | TGI (A498 renal): > 100 µM | TGI (IGROV1 ovarian): > 100 µM | TGI (KM20L2 colon): > 100 µM | TGI (SK-MEL-5 melanoma): > 100 µM | TGI (DMS 273 small cell lung): > 100 µM | TGI (RPMI-8226 leukemia): > 100 µM | TGI (SW-620 colon): > 100 µM | TGI (SN12C renal): > 100 µM | TGI (A549 NSCLC): > 100 µM | TGI (SNB-75 CNS): > 85.6 µM | TGI (NCI/ADR-RES ovarian): > 100 µM | TGI (P388/ADR leukemia): > 100 µM | TGI (NCI-H522 lung): > 100 µM | TGI (CCRF-CEM leukemia): > 100 µM | TGI (SK-OV-3 ovarian): > 100 µM | TGI (SN12K1 renal): > 100 µM | TGI (SNB-78 CNS): > 100 µM | TGI (P388 leukemia): > 100 µM | TGI (M19-MEL melanoma): > 100 µM

Cc1cc(NCCCCCCCNc2cc(C)nc3cc([N+](=O)[O-])ccc23)c2ccc([N+](=O)[O-])cc2n1
TGI (ACHN renal): 28.5 µM | TGI (HS 578T breast): 5.53 µM | TGI (OVCAR-4 ovarian): 4.31 µM | TGI (HOP-92 NSCLC): 47 µM | TGI (T-47D breast): 18.5 µM | TGI (KM12 colon): 3.74 µM | TGI (NCI-H460 lung): 6.36 µM | TGI (HCT-15 colon): 9.8 µM | TGI (OVCAR-3 ovarian): 25 µM | TGI (OVCAR-5 ovarian): 29.8 µM | TGI (NCI-H23 lung): > 24.9 µM | TGI (SF-295 CNS): 26.4 µM | TGI (SNB-19 CNS): 39.5 µM | TGI (DLD-1 colon): 3.55 µM | TGI (UACC-62 melanoma): 53.2 µM | TGI (NCI-H226 lung): 37.4 µM | TGI (MALME-3M melanoma): > 71.1 µM | TGI (HOP-62 NSCLC): 42 µM | TGI (COLO 205 colon): 27 µM | TGI (CAKI-1 renal): 65.2 µM | TGI (SK-MEL-28 melanoma): 10.1 µM | TGI (M14 melanoma): 41.2 µM | TGI (SK-MEL-2 melanoma): 98.3 µM | TGI (HOP-18 NSCLC): 31.1 µM | TGI (HCC-2998 colon): > 55.6 µM | TGI (SF-268 CNS): 7.5 µM | TGI (LOX IMVI melanoma): 5.69 µM | TGI (LXFL 529 NSCLC): 3.14 µM | TGI (UO-31 renal): 29 µM | TGI (786-0 renal): 39.3 µM | TGI (DMS 114 small cell lung): 3.28 µM | TGI (U251 CNS): 27.4 µM | TGI (SF-539 CNS): 39.5 µM | TGI (XF 498 CNS): > 48.1 µM | TGI (OVCAR-8 ovarian): 3.85 µM | TGI (HCT-116 colon): 3.56 µM | TGI (EKVX NSCLC): 35.9 µM | TGI (RXF-631 renal): > 45.9 µM | TGI (MDA-MB-435): 39 µM | TGI (MOLT-4 leukemia): 4.23 µM | TGI (HT29 colon): 8.43 µM | TGI (UACC-257 melanoma): 36.9 µM | TGI (A498 renal): 30.4 µM | TGI (IGROV1 ovarian): 37.1 µM | TGI (KM20L2 colon): 32 µM | TGI (MDA-MB-231 breast): 6.58 µM | TGI (SK-MEL-5 melanoma): 29.9 µM | TGI (DU-145 prostate): 11 µM | TGI (DMS 273 small cell lung): 15.5 µM | TGI (SW-620 colon): 4.61 µM | TGI (SN12C renal): 13.4 µM | TGI (A549 NSCLC): 9.41 µM | TGI (SNB-75 CNS): 40.9 µM | TGI (BT-549 breast): 67.3 µM | TGI (TK-10 renal): 39 µM | TGI (NCI-H522 lung): 2.78 µM | TGI (SK-OV-3 ovarian): 49.3 µM | TGI (SNB-78 CNS): > 31.6 µM | TGI (PC-3 prostate): 31.1 µM | TGI (RXF 393 renal): 22.9 µM | TGI (M19-MEL melanoma): 35.9 µM | TGI (MDA-N): 3.18 µM
